# From patent US5739130A, “Heterotricyclic derivatives, process for their preparation and pharmaceutical compositions containing them” (Fujisawa Pharmaceutical Co., Ltd., priority 1992, dated 1998)
# Columns and labels:
# B16 melanoma cells = test: Inhibitory activity on B16 melanoma metastases; format: in vivo, Mouse; conditions: C57BL/6 mice, day 16, P<0.01 vs control
# Experimental: Inhibitory activity on B16 melanoma metastases
# According to the experimental schedule as exemplified below, the experiment was carried out.
# Mouse B16 melanoma cells (5×10^5 cells) were inoculated intravenously to 8 weeks old female (C57BL/6) mice on day 0.
# The animals were sacrificed at day 16 and tumor colonies established in lung were counted in a dissection microscope.
# The test compound was administered orally once a day.
# Effects of test compound on tumors were assessed by the numbers of colonies compared to control. [drawing 8] 2. Test compound
# [1] = system: anti-single strand DNA antibodies; test: Inhibitory activity on the production of an anti-DNA-antibody (GVH disease mice, ELISA); format: in vivo, (57BL/6×DBA/2)F1; conditions: 32 mg/kg orally once a day for 8 weeks, measured 4 weeks after last cell injection, P<0.05 vs control
# Experimental: (§1) Inhibitory activity on the production of an anti-DNA-antibody and on the leakage of a proteinuria
# (§2) Six weeks old female (57BL/6×DBA/2)F1 and DBA/2 mice were used. Graft-versus-host (GVH) disease was induced in (57BL/6×DBA/2)F1mice with two injections of DBA/2 spleen cells given 5 days apart. Each injection contained 5×10^7 cells. From 3 days after the second cell injection, drug was administered orally once a day for 8 weeks.
# (§3) As an indication of autoimmune disease, 4 weeks after the last cell injection anti-single strand DNA antibodies were measured by enzyme-linkedimmunosorbent assay (ELISA) using the procedure reported by T. Fujitsu et al. (International J. Immunopharmacol, 8 897 (1986)). To assess the renal disease, 8 weeks after the last cell injection proteinuria were measured. The concentration of serum albumin in the urine was determined by the single radial immunodiffusion method using rabbit anti-mouse serum albumin antiserum. Ten mice were used per group. The activity of the compound was expressed as a % inhibition of anti-DNA antibody and proteinuria.
# [2] = system: proteinuria (serum albumin in the urine); test: Inhibitory activity on the leakage of a proteinuria (GVH disease mice, serum albumin in urine); format: in vivo, (57BL/6×DBA/2)F1; conditions: 32 mg/kg orally once a day for 8 weeks, measured 8 weeks after last cell injection, P<0.01 vs control
# Experimental: as §1, §2, §3
smiles,measurement,setting,value
"COc1cc2c3c(c1)c(O)c(C(=O)N1CCc4ccccc41)c(=O)n3CCO2 [2,3-Dihydro-7-hydroxy-9-methoxy-6-(1-indolinylcarbonyl)-5-oxo-5H-pyrido[1,2,3-de]-1,4-benzoxazine]",inhibition (%) of tumor colonies in lung,B16 melanoma cells; 32 mg/kg orally once a day,36%
same,inhibition (%) of tumor colonies in lung,B16 melanoma cells; 100 mg/kg orally once a day,59%
same,Inhibition (%) anti-DNA antibody,[1],86%
same,Inhibition (%) proteinuria,[2],99%
